{"source": "patent US20130296425A1", "about": "“PROPHYLACTIC OR THERAPEUTIC AGENT FOR A PERIPHERAL NERVE DISORDER INDUCED BY ANTI-CANCER AGENTS” (NAGOYA INDUSTRIAL SCIENCE RESEARCH INSTITUTE, priority 2011, published 2013)", "key": {"[1]": {"test_system": "paclitaxel-induced peripheral nerve disorder rats", "assay": "Oral administration (suspension or α-CD inclusion complex), hyperalgesia by paclitaxel (von Frey test)", "format": "in vivo, rat", "conditions": "for 50% reaction threshold value, after 5 hours from administration / AUC of 50% reaction threshold value over time, measured value: single dose; for 50% reaction threshold value, before administration: baseline", "protocol": "A suspension ([…]) 5 mL of the compound 4 was mixed with a 1% α-CD aqueous solution followed by stirring overnight to prepare an α-CD inclusion complex of the compound 4.\nWith regard to male SD rats of six weeks age used as the experimental animals, the rats were organized into the following six groups each comprising 6 rats. • Oral administration group with 0.3 mg/kg of the test drug suspension • Oral administration group with 3 mg/kg of the test drug suspension • Oral administration group with an α-CD inclusion complex containing 0.3 mg/kg of the test drug • Oral administration group with an α-CD inclusion complex containing 3 mg/kg of the test drug • α-CD oral administration group • Intraperitoneal administration group with 0.3 mg/kg of the test drug\nPaclitaxel-induced peripheral nerve disorder rats were prepared in the same manner as in the above 1.[1](2). The compound 4 was used as a test drug and, after 39 days from the initiation of the administration of paclitaxel, it was orally administered in a single dose where the dose calculated as a test drug became 0.3 mg/kg or 3 mg/kg to oral administration groups with the test drug suspension or to oral administration groups with an α-CD inclusion complex containing the test drug while, to an intraperitoneal administration group with the test drug, it was intraperitoneally administered in a single dose of 0.3 mg/kg. Further, to an α-CD Oral administration group, an α-CD solution was orally administered in a single dose of 15 mg/kg.\nA von Frey test was conducted in the same manner as in the above 1.[1](4) using the rats mentioned in the above (2) and 50% reaction threshold values in each group were measured before initiating the administration of a test drug and after 1, 5 and 24 hours. Further, AUC (area of the part surrounded by a curve and an abscissa axis (a time axis) in a graph showing the 50% reaction threshold value over time from administration of the test drug) was calculated and the relative ratio of each group was calculated where the AUC of the intraperitoneal administration group with 0.3 mg/kg of the test drug was adopted as 100."}, "[2]": {"test_system": "oxaliplatin-induced peripheral nerve disorder rats", "assay": "Repeated intraperitoneal administration, hyperalgesia by oxaliplatin (von Frey test)", "format": "in vivo, rat", "protocol": "With regard to male SD rats of six weeks age used as the experimental animals, their 50% reaction threshold values to mechanical stimulus and body weights were measured and then the following seven groups each comprising 8 rats was organized. • Normal control group • Onset control group • Prophylactic administration group with 0.25 mg/kg/day of a test drug • Prophylactic administration group with 0.50 mg/kg/day of a test drug • Therapeutic administration group with 0.25 mg/kg/day of a test drug • Therapeutic administration group with 0.50 mg/kg/day of a test drug • Therapeutic administration group with 10 mg/kg/day of pregabalin (positive control)\nTo the rats of each of the above groups except the normal control group was intraperitoneally administered an oxaliplatin solution dissolved in glucose injection to an extent of 4 mg/mL in a dose of 4 mg/kg twice weekly for four weeks being eight times in total whereupon the oxaliplatin-induced peripheral nerve disorder rats were prepared. To the normal control group, glucose injection was administered similarly.\nTo prophylactic administration groups of a test drug, a test drug (the compound 4) in a dose of 0.25 mg/kg/day or 0.50 mg/kg/day was repeatedly administered intraperitoneally since immediately after initiation of administration of oxaliplatin until 27 days thereafter. Meanwhile, to a therapeutic administration group of a test drug and to a therapeutic administration group of pregabalin, a test drug (the compound 4) in a dose of 0.25 mg/kg/day or 0.50 mg/kg/day was repeatedly administered intraperitoneally during the period of from 14 days to 27 days after initiation of the administration of oxaliplatin and, pregabalin was administered orally in repeated dose of 10 mg/kg/day during the same period.\nA von Frey test was conducted in the same manner as in the above 1.[1](4) using the seven groups of rats mentioned in the above (1). 50% reaction threshold values in each group were measured before initiating the administration of oxaliplatin and after 7, 14, 21, 28, 33 and 40 days from the initiation of the administration. Mean value ± standard error for each group was calculated and the test for significant difference was conducted in the same manner as in the above 1.[1](4)."}, "[3]": {"conditions": "oral 0.3 mg/kg, test drug suspension"}, "[4]": {"conditions": "oral 3 mg/kg, test drug suspension"}}}
{"smiles": "CCCCCCC/C=C/C(=O)OCC", "note": "[Compound 4, Trans-2-decenoic acid ethyl ester]", "values": [{"measurement": "50% reaction threshold value, after 5 hours from administration", "setting": "[1]; intraperitoneal 0.3 mg/kg", "result": 8.57}, {"measurement": "AUC of 50% reaction threshold value over time, measured value", "setting": "[1]; intraperitoneal 0.3 mg/kg", "result": 74.59}, {"measurement": "50% reaction threshold value, before administration", "setting": "[1]; intraperitoneal 0.3 mg/kg", "result": 4.58}, {"measurement": "AUC relative ratio", "setting": "[1]; intraperitoneal 0.3 mg/kg, this group adopted as 100", "result": 100}, {"measurement": "50% reaction threshold value, after 5 hours from administration", "setting": "[1]; [3]", "result": 6.00}, {"measurement": "AUC of 50% reaction threshold value over time, measured value", "setting": "[1]; [3]", "result": 31.83}, {"measurement": "AUC relative ratio", "setting": "[1]; oral 0.3 mg/kg, test drug suspension, AUC of i.p. 0.3 mg/kg group = 100", "result": 43}, {"measurement": "50% reaction threshold value, before administration", "setting": "[1]; [3]", "result": 4.57}, {"measurement": "50% reaction threshold value, after 5 hours from administration", "setting": "[1]; [4]", "result": 8.66}, {"measurement": "AUC of 50% reaction threshold value over time, measured value", "setting": "[1]; [4]", "result": 54.99}, {"measurement": "AUC relative ratio", "setting": "[1]; oral 3 mg/kg, test drug suspension, AUC of i.p. 0.3 mg/kg group = 100", "result": 74}, {"measurement": "50% reaction threshold value, before administration", "setting": "[1]; [4]", "result": 4.57}, {"measurement": "effect of suppressing the hyperalgesia after completion of the repeated administration", "setting": "[2]; oxaliplatin model, repeated i.p. 0.25 or 0.50 mg/kg/day", "result": "still continued"}, {"measurement": "50% reaction threshold values to the mechanical stimulus vs onset control group", "setting": "[2]; prophylactic i.p. 0.25 mg/kg/day until 27 days, from 21 days to 28 days after oxaliplatin", "result": "significantly high"}, {"measurement": "50% reaction threshold values to the mechanical stimulus vs onset control group", "setting": "[2]; prophylactic i.p. 0.5 mg/kg/day until 27 days, from 21 days to 33 days after oxaliplatin", "result": "significantly high"}, {"measurement": "50% reaction threshold values to the mechanical stimulus vs onset control group", "setting": "[2]; therapeutic i.p. 0.25 mg/kg/day (days 14-27), after 28 days from oxaliplatin", "result": "significantly high"}, {"measurement": "50% reaction threshold values to the mechanical stimulus vs onset control group", "setting": "[2]; therapeutic i.p. 0.5 mg/kg/day (days 14-27), from 21 days to 33 days after oxaliplatin", "result": "significantly high"}]}
